# Measured values published in patent US20200352918A1, “COMPOUNDS AND METHODS FOR TREATING OR PREVENTING FIBROSIS” (priority 2019, published 2020).
# Experiments:
# iFA model = test: Fibrotic marker, cytokine and repair modulator expression in the iFA model (qPCR, immunoblotting, luminex, immunofluorescence); type: cell-based, human
# Protocol: The Milliplex human cytokine/chemokine Panel IV, human TIMP Panel 2, and human TGFβ 1,2,3 magnetic bead kits (EMD Millipore) were used per manufacturer's instructions. Prior to plating, all samples tested for human TGFβ only were activated and neutralized with 1.0 N HCl and 1.0 N NaOH, respectively. Briefly, 25 μl of undiluted or treated cell culture supernatant samples were mixed with 25 μl of magnetic beads and allowed to incubate overnight at 4° C. while shaking. After washing the plates with wash buffer in a Biotek ELx405 washer, 25 μl of biotinylated detection antibody was added and incubated for 1 hour at room temperature while shaking. 25 μl of streptavidin-phycoerythrin conjugate was then added to the reaction mixture and incubated for another 30 minutes at room temperature while shaking. Following additional washes, beads were resuspended in sheath fluid, and fluorescence was quantified using a Luminex 200 instrument. Similarly, a custom magnetic Luminex assay kit of select analytes (R&D Systems) was used per manufacturer's instructions. Cell culture supernatants were prepared with a 2-fold dilution. 50 μl of diluted sample were added to 50 μl of provided micro-particle cocktail and incubated for 2 hours at room temperature while shaking. After washing with wash buffer, 50 μl of biotin antibody cocktail was added and incubated for 1 hour at room temperature while shaking. Following additional washes, 50 μl of diluted Streptavidin-PE was then added for incubation for 30 minutes at room temperature while shaking. The plate was then washed again and the micro-particles resuspended in 100 μl wash buffer. After an additional 2-minute incubation while shaking, the data was acquired using a Luminex 200 instrument.
# In-vitro cultures of PF and cells in the iFA model were washed once with PBS and total RNA from the samples were extracted using the RNeasy Mini Kit (Qiagen) according to the manufacturer's instructions. For the lung slice cultures (LSC), tissues were snap-frozen after treatment and stored at −80° C. until RNA isolation. Lung slices were homogenized using a handheld homogenizer and passing the homogenate through a Qiashredder (Qiagen). Total RNA from the LSC and cells from the disease model were extracted using the RNeasy Mini Kit (Qiagen) according to the manufacturer's instructions. The RNA concentrations were measured on a NanoDrop ND-1000 spectrophotometer. Single-stranded cDNA was synthesized from 200 ng of total RNA using Superscript IV and random hexamer primers (Invitrogen) in a volume of 20 μl. cDNA was then used for qRT-PCR analysis. PCR reactions were performed using Taqman Gene Expression Assay mix (Applied Biosystems) according to the manufacturer's instructions.
# qRT-PCR reactions were performed using the StepOnePlus (Applied Biosystems). Relative gene expression was calculated using the 2^−ΔΔCt method, with 18S Cat. #4331182 (Invitrogen) as housekeeping gene. For the RT^2qPCR arrays, cDNA from DMSO and AA5 treated iFA and was added to the RT^2 qPCR iTaq Universal SYBR green Master Mix (Biorad). 20 μl of the experimental cocktail was added to each well of the Fibrosis PCR (Qiagen). Real-Time PCR was performed on the StepOnePlus qPCR system (Applied Biosystems) using SYBR green detection according to the manufacturer's recommendations. All data from the PCR was collected and analyzed by SA Bioscience's PCR Array Data Analysis Web Portal.
# Cells grown on coverslips were fixed in 4% paraformaldehyde (PFA) for 10 min at room temperature and washed three times with TBS buffer supplemented with 0.1% Tween 20 (TBST). Lung samples were fixed overnight in 4% PFA at room temperature, washed 3 times in PBS, dehydrated and then infiltrated and embedded with wax. Five-micron sections were collected on glass slides, deparaffinized and rehydrated. Heat-induced epitope retrieval was performed using 1 mM EDTA in a microwave. […]
# ocular mucosal fibrosis = test: Murine model of ocular mucosal fibrosis (OVA induced); type: in vivo, mice
# Protocol: Female […] mice 8-10 week of age were used for all experiments. The mice were housed in the institute's vivarium in compliance with the Animal Research Committee. Immune-mediated conjunctivitis was induced in by i.p. injection of 200 μl of immunization mix containing: 10 μg Ovalbumin (OVA) (Sigma-Aldrich), 4 mg aluminium hydroxide (Thermo Scientific), and 300 ng of pertussis toxin (Sigma-Aldrich). After 2 weeks, mice received topical OVA challenge ([…]) once a day for 7 days for the development of fibrosis. To evaluate the efficacy of AA5 in preventing fibrosis, topical OVA challenge was accompanied by addition of 1, 10, 100 or 1000 ug/mouse (n=12) AA5 administered in both eyes in a volume of 5 ul for a total of 7 days.
# To evaluate the efficacy of AA5 in resolving fibrosis, topical OVA challenge was continued for an additional 7 days (days 14-21) after the initial OVA sensitization for the development of fibrosis. From day 21 to 28, OVA challenge was accompanied by addition of 1, 10, 100 or 1000 ug/mouse (n=12) AA5. 1% DMSO administered in both eyes in a 5 µl volume of PBS was used as control. Both eyes were scored in the same manner. For the scoring, a cumulative score of eyelid swelling (out of 3) and tearing (out of 3) was taken. At the end of the experiment at day 21 (prevention studies) or […] (resolution studies), mice were sacrificed and whole eyes were collected, fixed in 10% (v/v) formalin and processed by the standard methods for paraffin embedding. Sections (5 μm) were stained with Gomori Trichrome and H&E and imaged. Tissue sections were reviewed by 4 independent observers, including two observers who were blinded to the groups—a pathologist and another researcher. Conjunctivae were dissected from whole eyes and either processed for RNA or hydroxyproline.
# Conjunctiva or LSCs were boiled in 50 μl or 400 μl of 6 M HCl, respectively at 100° C. overnight. Hydroxyproline levels were measured in the acid hydrolysis method using a kit from Biovision Inc. (Milpitas, Calif.) using the manufacturer's instructions. […]
structure (smiles),measurement,setting,value
Cc1c(C(=O)Nc2nc3ccccc3s2)sc2nc3cc4c(cc3cc12)OCO4 [AA5],"Secreted levels of acute-phase response cytokines IL-6, IL-8 and IFNα","iFA model; AA5-prevention and AA5-resolution, luminex",increase
same,PTX3 protein,"iFA model; AA5-prevention and AA5-resolution, over time",progressively increasing amounts
same,"Acute-phase signaling secondary cytokines MCP-3, VEGF, CSF3 and GRO",iFA model; AA5 treated iFA model,increase
same,"Gene expression of fibrotic markers α-SMA, Collagen I, TIMP-3 and POSTN","iFA model; AA5 treatment, confirmed by immunoblotting, luminex, immunofluorescence",down-regulation
same,Modulators of tissue repair PTX3 and CD163L1,iFA model; within 24 hours of AA5-resolution treatment,upregulation
same,Gomori Trichrome sections of whole eyes: conjunctiva thickness and collagen deposition,ocular mucosal fibrosis; AA5 1000 ug,qualitatively decreased thickness of conjunctiva and collagen deposition
same,Collagen content of the conjunctivae,ocular mucosal fibrosis; AA5-prevention and AA5-resolution at 0.1 and 1 mg doses,significant reduction
same,"Clinical swelling, tearing and inflammation of eyes","ocular mucosal fibrosis; topical, preventive and resolutive treatments, vs DMSO-treated eyes","less clinical swelling, tearing and inflammation"
